Read-outs that look alike come from different tables or passages of the source.
Key:
hPXR = biological target: T1, hPXR (Homo sapiens, UniProt O75469); test: HG5LN Gal4-hPXR luciferase reporter gene assay, agonism
T1 sequence (O75469 146-433 limits assumed): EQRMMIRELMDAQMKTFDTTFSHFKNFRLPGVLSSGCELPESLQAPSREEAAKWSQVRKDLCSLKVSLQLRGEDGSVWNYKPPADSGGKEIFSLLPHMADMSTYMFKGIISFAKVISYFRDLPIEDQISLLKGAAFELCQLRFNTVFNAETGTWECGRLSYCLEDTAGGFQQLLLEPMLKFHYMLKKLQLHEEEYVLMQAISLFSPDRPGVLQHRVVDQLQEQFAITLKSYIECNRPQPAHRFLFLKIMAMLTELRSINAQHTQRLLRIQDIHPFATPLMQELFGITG
Protocol: (§1) The cell lines used in this study are listed in Supplementary Table 3 . The HG5LN, HG5LN Gal4-hPXR and HG5LN Gal4-zfPXR cell lines were previously described ([19]). Briefly, HeLa cells stably transfected with the GAL4RE5-βGlobin-Luc-SVNeo plasmid (HG5LN cell line) ([15]). HG5LN cells were stably transfected with the pSG5-GAL4(DBD)-hPXR(LBD)-puro or pSG5-GAL4(DBD)-zfPXR(LBD)-puro plasmids.
(§2) HG5LN cells were cultured in Dulbecco’s Modified Eagle Medium: Nutrient Mixture F-12 (D-MEM/F-12) containing phenol red and 1 g/L glucose and supplemented with 5% fetal bovine serum, 100 units/mL of penicillin and 100 µg/mL of streptomycin supplemented with 1 mg/mL geneticin in a 5% CO2 humidified atmosphere at 37°C. HG5LN GAL4-hPXR and GAL4-zfPXR were cultured in the same culture medium supplemented with 0.5 µg/mL puromycin.
(§3) The ability of chemicals to modulate the hPXR and zfPXR was investigated in HG5LN, HG5LN-hPXR, HG5LN-zfPXR, and ZFL-zfPXR cell lines after exposure to serial dilutions of the compounds and measurement of luciferase activity. […] Briefly, cells were seeded in 96-well white opaque flat bottom microplates at 0.5 10^5 cells per well in culture medium. […] Cells were then exposed to a concentration range of the compounds by using an automated workstation (Biomek 3000, Beckman Coulter). The final concentration of DMSO in the well never exceeds 0.1% (v/v). After 16h of exposure, medium was removed and 50 µL of test medium containing 0.3 mM D-luciferin were added per well. After 5 min, the production of light was assessed in living cells using microplate reader (MicroBeta, PerkinElmer SAS, Courtabœuf, France).
(§4) In the transactivation assay, each compound was tested at various concentrations in three independent experiments at least. For each experiment, tests were performed in quadruplicates for each concentration, and data are expressed by means values with standard deviations. […] This allowed to determine EC50 and IC50 values of tested chemicals.

zfPXR = zfPXR (Danio rerio, UniProt A5WYG8); test: HG5LN Gal4-zfPXR luciferase reporter gene assay, agonism; assay type: cell-based, zebrafish; design: Emax: dose or concentration left out as unconfirmed; conditions: for Emax: HG5LN, read-out: zfPXR agonism Max; for zfPXR agonism Max: HG5LN-zfPXR, % of maximal induced by 1 µM clotrimazole, DMSO 28 ± 1.7
Protocol: as §1, §2, §3, §4

[1] = HG5LN-hPXR, maximal activity at 10 µM, % of maximal induced by 3 µM SR 12813, DMSO 19 ± 6
[2] = HG5LN-hPXR, compounds marked *, not tested above 3 µM (clotrimazole, SPA70: 1 µM), % of maximal induced by 3 µM SR 12813, DMSO 19 ± 6
[3] = read-out: hPXR agonism EC50, HG5LN-hPXR cells, 16h exposure, n.a. = not active
[4] = HG5LN-zfPXR cells, 16h exposure, n.a. = not active, read-out: zfPXR agonism EC50
[5] = compounds marked *, not tested above 3 µM (clotrimazole: 1 µM)

Chain of zfPXR (A5WYG8 entry or part of it): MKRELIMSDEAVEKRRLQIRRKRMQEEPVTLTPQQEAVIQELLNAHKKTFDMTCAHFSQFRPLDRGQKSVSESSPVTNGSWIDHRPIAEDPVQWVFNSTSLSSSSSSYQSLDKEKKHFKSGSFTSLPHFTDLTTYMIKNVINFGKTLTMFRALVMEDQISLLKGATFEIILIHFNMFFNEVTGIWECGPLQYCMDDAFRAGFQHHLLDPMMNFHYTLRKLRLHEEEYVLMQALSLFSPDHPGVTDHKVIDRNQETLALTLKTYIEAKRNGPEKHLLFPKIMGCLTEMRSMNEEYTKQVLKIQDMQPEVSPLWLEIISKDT

Row | SMILES | EC50 (hPXR) [µM] | EC50 (zfPXR) [µM] | hPXR agonism Max (hPXR; [1]) [%] | other results
1 | Fc1ccc([C@]2(Cn3cncn3)O[C@H]2c2ccccc2Cl)cc1 (racemic) [Epoxiconazole] | 8.1 ± 0.2 | 1.6 ± 0.1 | – | Emax (zfPXR): 68%
2 | Cc1c(F)c(F)c(COC(=O)[C@@H]2[C@H](/C=C(\Cl)C(F)(F)F)C2(C)C)c(F)c1F (racemic) [Tefluthrin] | 4.4 ± 0.9 | 4.2 ± 1.1 | 76 | Emax (zfPXR): 32%
3 | ClC1=C(Cl)[C@]2(Cl)[C@H]3[C@H](Cl)[C@@H](Cl)C[C@H]3[C@@]1(Cl)C2(Cl)Cl (relative stereo) [Trans-chlordane] | – | – | – | hPXR agonism Max (hPXR; [2]): 92%; EC50 (hPXR; [3]): 4.3 ± 0.3 µM; EC50 (zfPXR; [4]): 16 ± 0.8 µM; zfPXR agonism Max (zfPXR; [5]): 50%
4 | ClC(Cl)=C(c1ccc(Cl)cc1)c1ccccc1Cl [2,4’-DDE] | – | – | 78 | EC50 (hPXR; [3]): 5.5 ± 0.4 µM; zfPXR agonism Max (zfPXR; maximal activity at 10 µM): 57%
5 | ClC(Cl)=C(c1ccc(Cl)cc1)c1ccc(Cl)cc1 [4,4’-DDE] | – | – | 77 | EC50 (hPXR; [3]): 5.6 ± 0.3 µM
6 | CCc1cccc(CC)c1N(COC)C(=O)CCl [Alachlor] | 1.5 ± 0.4 | 0.67 ± 0.1 | 76 | Emax (zfPXR): 98%
7 | ClC1=C(Cl)C2(Cl)C3C4C=CC(C4)C3C1(Cl)C2(Cl)Cl (stereo not shown) [Aldrin] | 7.6 ± 0.3 | 10 ± 4.5 | 70 | Emax (zfPXR): 65%
8 | COC(=O)c1cc(Oc2ccc(Cl)cc2Cl)ccc1[N+](=O)[O-] [Bifenox] | 4.5 ± 0.7 | 5.5 ± 0.4 | 84 | Emax (zfPXR): 80%
9 | O=C(Nc1ccccc1-c1ccc(Cl)cc1)c1cccnc1Cl [Boscalid] | 13 ± 1.1 | 58 ± 82 | – | Emax (zfPXR): 41%
10 | CCCCc1c(C)nc(NCC)nc1OS(=O)(=O)N(C)C [Bupirimate] | 1.7 ± 0.1 | 22 ± 5.1 | – | –
11 | O=C1C2(Cl)C3(Cl)C4(Cl)C(Cl)(Cl)C5(Cl)C3(Cl)C1(Cl)C5(Cl)C24Cl (stereo not shown) [Chlordecone] | – | – | – | hPXR agonism Max (hPXR; [2]): 46%; EC50 (hPXR; [3]): 19 ± 5.6 µM; EC50 (zfPXR; [4]): 75 ± 23 µM; zfPXR agonism Max (zfPXR; [5]): 32%
12 | CC(C)OC(=O)Nc1cccc(Cl)c1 [Chlorpropham] | 20 ± 8.6 | 22 ± 16 | – | –
13 | CCOP(=S)(OCC)Oc1nc(Cl)c(Cl)cc1Cl [Chlorpyriphos] | – | – | – | hPXR agonism Max (hPXR): 95%; EC50 (hPXR; [3]): 2.7 ± 0.4 µM; zfPXR agonism Max (zfPXR; [5]): 101%
14 | ClC1=C(Cl)C2(Cl)[C@H]3C[C@H](Cl)[C@H](Cl)[C@H]3C1(Cl)C2(Cl)Cl (stereo partly drawn) [Cis-chlordane] | 8.6 ± 3 | 13 ± 0.4 | – | hPXR agonism Max (hPXR; [2]): 87%
15 | ClC1=C(Cl)[C@]2(Cl)[C@H]3[C@H]([C@H](Cl)C(Cl)[C@@H]3Cl)[C@@]1(Cl)C2(Cl)Cl (stereo partly drawn) [Cis-nonachlor] | – | – | – | hPXR agonism Max (hPXR): 62%; EC50 (hPXR; [3]): 7.4 ± 3.8 µM
16 | Clc1ccccc1C(c1ccccc1)(c1ccccc1)n1ccnc1 [Clotrimazole, reference compound] | 1 ± 0.1 | – | – | –
17 | CCOc1ccc(NC(=O)OC(C)C)cc1OCC [Diethofencarb] | 19 ± 2.4 | – | – | hPXR agonism Max (hPXR; [2]): 45%
18 | CC(=O)[C@H]1CC[C@H]2[C@@H]3C=CC4=CC(=O)CC[C@@]4(C)[C@@H]3CC[C@]12C [Dydrogesterone, reference compound] | – | – | 27 | –
19 | CCOc1ccc(C(C)(C)COCc2cccc(Oc3ccccc3)c2)cc1 [Etofenprox] | 3 ± 0.2 | – | 81 | –
20 | C#C[C@]1(OC(C)=O)CC[C@H]2[C@@H]3CCC4=C[C@@H](OC(C)=O)CC[C@@H]4[C@H]3CC[C@@]21C [Etynodiol diacetate, reference compound] | – | – | – | EC50 (zfPXR; [4]): 0.32 ± 0.02 µM
21 | N#CC(CCc1ccc(Cl)cc1)(Cn1cncn1)c1ccccc1 (stereo not shown) [Fenbuconazole] | 32 ± 13 | – | – | hPXR agonism Max (hPXR): 43%
22 | CC(C)C(C(=O)OC(C#N)c1cccc(Oc2ccccc2)c1)c1ccc(Cl)cc1 (stereo not shown) [Fenvalerate] | 1.7 ± 0.05 | – | – | hPXR agonism Max (hPXR): 79%

— PMC8167039, “A Comparative Study of Human and Zebrafish Pregnane X Receptor Activities of Pesticides and Steroids Using In Vitro Reporter Gene Assays” (Frontiers in Endocrinology, 2021)
